Here are results for 22 compounds from patent US7741327B2 (Hoffmann-La Roche Inc., priority 2008, dated 2010).

Each structure is given as a SMILES string.

The target of this assay is T1, Recombinant human liver GK1 (GST-GK) (Homo sapiens, UniProt P35557).
T1 construct: made in house; host or cells: E. coli
T1 sequence (P35557 1-466 isoform P35557-2): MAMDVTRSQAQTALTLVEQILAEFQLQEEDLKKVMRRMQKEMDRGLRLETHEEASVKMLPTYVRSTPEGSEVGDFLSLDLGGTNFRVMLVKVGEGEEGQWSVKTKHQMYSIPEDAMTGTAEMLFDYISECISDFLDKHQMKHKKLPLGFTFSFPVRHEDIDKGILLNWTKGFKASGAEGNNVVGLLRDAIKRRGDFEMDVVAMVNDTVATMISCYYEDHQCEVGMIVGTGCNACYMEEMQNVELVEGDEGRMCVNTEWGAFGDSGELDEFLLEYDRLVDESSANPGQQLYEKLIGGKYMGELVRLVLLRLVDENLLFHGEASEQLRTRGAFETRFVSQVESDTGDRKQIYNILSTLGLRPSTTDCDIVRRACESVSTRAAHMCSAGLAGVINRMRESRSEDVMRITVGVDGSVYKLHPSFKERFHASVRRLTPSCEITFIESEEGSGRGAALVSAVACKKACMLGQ
Description: In vitro glucokinase activity (G6PDH-coupled NADH assay). The assay is classed as biochemical. To be noted: 30° C., 5 mM D-glucose, 10% DMSO. A digest of the protocol: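 Activation measured as the rate of OD340 rise from G6PDH-coupled NADH production, relative to 10% DMSO control, reported as SC1.5 (concentration for 50% activity increase). Conditions: 30° C, pH 7.1 Hepes, 5 mM glucose, 1 mM ATP, purified recombinant GST-human GK1, compound preincubated 10 min before enzyme addition.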
As to `CCc1nsc(NC(=O)[C@H](CC(C)C)N2CC(Oc3ccccc3Cl)=CC2=O)n1` [Example 110, (S)-2-[4-(2-Chloro-phenoxy)-2-oxo-2,5-dihydro-pyrrol-1-yl]-4-methyl-pentanoic acid (3-ethyl-[1,2,4]thiadiazol-5-yl)-amide], the “SC1.5 (concentration of activator that produced a 50% increase in the activity of GK)” value was found to be 3.478 µM.
Take `C=CCOC(=O)Cc1nsc(NC(=O)[C@H](CC(C)C)N2CC(Oc3ccccc3Cl)=CC2=O)n1` [Example 111, (5-{(S)-2-[4-(2-Chloro-phenoxy)-2-oxo-2,5-dihydro-pyrrol-1-yl]-4-methyl-pentanoylamino}-[1,2,4]thiadiazol-3-yl)-acetic acid allyl ester]: the “SC1.5 (concentration of activator that produced a 50% increase in the activity of GK)” value amounted to 0.694 µM.
Under `COCc1nsc(NC(=O)[C@H](CC(C)C)N2CC(Oc3ccccc3Cl)=CC2=O)n1` [Example 112, (S)-2-[4-(2-Chloro-phenoxy)-2-oxo-2,5-dihydro-pyrrol-1-yl]-4-methyl-pentanoic acid (3-methoxymethyl-[1,2,4]thiadiazol-5-yl)-amide] stands 2.26 µM.
Under `CC(=O)Cc1nsc(NC(=O)[C@H](CC(C)C)N2CC(Oc3ccccc3Cl)=CC2=O)n1` [Example 113, (S)-2-[4-(2-Chloro-phenoxy)-2-oxo-2,5-dihydro-pyrrol-1-yl]-4-methyl-pentanoic acid [3-(2-oxo-propyl)-[1,2,4]thiadiazol-5-yl]-amide] stands 1.737 µM; under `CCOc1cccc(OC2=CC(=O)N([C@@H](CC(C)C)C(=O)Nc3ccn(CC(C)(C)O)n3)C2)c1F` [Example 114, (S)-2-[4-(3-Ethoxy-2-fluoro-phenoxy)-2-oxo-2,5-dihydro-pyrrol-1-yl]-4-methyl-pentanoic acid [1-(2-hydroxy-2-methyl-propyl)-1H-pyrazol-3-yl]-amide], 0.02 µM; under `CCOc1cccc(OC2=CC(=O)N([C@@H](CC(C)C)C(=O)Nc3ccn(C[C@@H](O)CO)n3)C2)c1F` [Example 115, (S)-2-[4-(3-Ethoxy-2-fluoro-phenoxy)-2-oxo-2,5-dihydro-pyrrol-1-yl]-4-methyl-pentanoic acid [1-((R)-2,3-dihydroxy-propyl)-1H-pyrazol-3-yl]-amide], 0.027 µM.
Under `CCOc1ccc(F)c(OC2=CC(=O)N([C@@H](CC(C)C)C(=O)Nc3ccn(C[C@@H]4COC(C)(C)O4)n3)C2)c1F` [Example 116, (S)-2-[4-(3-Ethoxy-2,6-difluoro-phenoxy)-2-oxo-2,5-dihydro-pyrrol-1-yl]-4-methyl-pentanoic acid [1-((R)-2,2-dimethyl-[1,3]dioxolan-4-yl-methyl)-1H-pyrazol-3-yl]-amide] stands 0.22 µM.
For `CCOc1ccc(F)c(OC2=CC(=O)N([C@@H](CC(C)C)C(=O)Nc3ccn(C[C@@H](O)CO)n3)C2)c1F` [Example 117, (S)-2-[4-(3-Ethoxy-2,6-difluoro-phenoxy)-2-oxo-2,5-dihydro-pyrrol-1-yl]-4-methyl-pentanoic acid [1-((R)-2,3-dihydroxy-propyl)-1H-pyrazol-3-yl]-amide], the “SC1.5 (concentration of activator that produced a 50% increase in the activity of GK)” value turned out to be 0.034 µM.
Under `COc1ccc(F)c(OC2=CC(=O)N([C@@H](CC(C)C)C(=O)Nc3ccn(C[C@@H]4COC(C)(C)O4)n3)C2)c1F` [Example 118, (S)-2-[4-(2,6-Difluoro-3-methoxy-phenoxy)-2-oxo-2,5-dihydro-pyrrol-1-yl]-4-methyl-pentanoic acid [1-((R)-2,2-dimethyl-[1,3]dioxolan-4-yl-methyl)-1H-pyrazol-3-yl]-amide] stands 0.256 µM.
`COc1ccc(F)c(OC2=CC(=O)N([C@@H](CC(C)C)C(=O)Nc3ccn(C[C@@H](O)CO)n3)C2)c1F` [Example 119, (S)-2-[4-(2,6-Difluoro-3-methoxy-phenoxy)-2-oxo-2,5-dihydro-pyrrol-1-yl]-4-methyl-pentanoic acid [1-((R)-2,3-dihydroxy-propyl)-1H-pyrazol-3-yl]-amide]: the “SC1.5 (concentration of activator that produced a 50% increase in the activity of GK)” value turned out to be 0.072 µM.
Regarding `Cc1ccccc1OC1=CC(=O)N([C@@H](CC(C)C)C(=O)Nc2ccn(C)n2)C1` [Example 120, (S)-4-Methyl-2-(2-oxo-4-o-tolyloxy-2,5-dihydro-pyrrol-1-yl)-pentanoic acid (1-methyl-1H-pyrazol-3-yl)-amide], the “SC1.5 (concentration of activator that produced a 50% increase in the activity of GK)” value is 0.72 µM.
On to `Cc1ccccc1OC1=CC(=O)N([C@@H](CC(C)C)C(=O)Nc2ccn(CCO[Si](C)(C)C(C)(C)C)n2)C1` [Example 121, (S)-4-Methyl-2-(2-oxo-4-o-tolyloxy-2,5-dihydro-pyrrol-1-yl)-pentanoic acid {1-[2-(t-butyl-dimethyl-silanyloxy)-ethyl]-1H-pyrazol-3-yl}-amide], for which the “SC1.5 (concentration of activator that produced a 50% increase in the activity of GK)” value came out at 0.746 µM.
The same measure for `Cc1ccccc1OC1=CC(=O)N([C@@H](CC(C)C)C(=O)Nc2ccn(CCO)n2)C1` [Example 122, (S)-4-Methyl-2-(2-oxo-4-o-tolyloxy-2,5-dihydro-pyrrol-1-yl)-pentanoic acid [1-(2-hydroxy-ethyl)-1H-pyrazol-3-yl]-amide]: 0.56 µM.
The same measure for `Cc1ccccc1OC1=CC(=O)N([C@@H](CC(C)C)C(=O)Nc2ccn(C[C@@H]3COC(C)(C)O3)n2)C1` [Example 123, (S)-4-Methyl-2-(2-oxo-4-o-tolyloxy-2,5-dihydro-pyrrol-1-yl)-pentanoic acid [1-((R)-2,2-dimethyl-[1,3]dioxolan-4-yl-methyl)-1H-pyrazol-3-yl]-amide]: 1.294 µM.
For the compound `Cc1ccccc1OC1=CC(=O)N([C@@H](CC(C)C)C(=O)Nc2ccn(C[C@@H](O)CO)n2)C1` [Example 124, (S)-4-Methyl-2-(2-oxo-4-o-tolyloxy-2,5-dihydro-pyrrol-1-yl)-pentanoic acid [1-((R)-2,3-dihydroxy-propyl)-1H-pyrazol-3-yl]-amide], the “SC1.5 (concentration of activator that produced a 50% increase in the activity of GK)” value is 0.336 µM.
The same measure for `Cc1ccccc1OC1=CC(=O)N([C@@H](CC(C)C)C(=O)Nc2ccn(CC(C)(C)O)n2)C1` [Example 125, (S)-4-Methyl-2-(2-oxo-4-o-tolyloxy-2,5-dihydro-pyrrol-1-yl)-pentanoic acid [1-(2-hydroxy-2-methyl-propyl)-1H-pyrazol-3-yl]-amide]: 0.252 µM.
For the compound `CC(C)C[C@@H](C(=O)Nc1ccn(CC(C)(C)O)n1)N1CC(Oc2cccc(O)c2F)=CC1=O` [Example 126, (S)-2-[4-(2-Fluoro-3-hydroxy-phenoxy)-2-oxo-2,5-dihydro-pyrrol-1-yl]-4-methyl-pentanoic acid [1-(2-hydroxy-2-methyl-propyl)-1H-pyrazol-3-yl]-amide], the “SC1.5 (concentration of activator that produced a 50% increase in the activity of GK)” value is 0.182 µM.
The same measure for `CC(C)C[C@@H](C(=O)Nc1ccn(C)n1)N1CC(Oc2cccc(O)c2F)=CC1=O` [Example 127, (S)-2-[4-(2-Fluoro-3-hydroxy-phenoxy)-2-oxo-2,5-dihydro-pyrrol-1-yl]-4-methyl-pentanoic acid (1-methyl-1H-pyrazol-3-yl)-amide]: 0.414 µM; for `CC(C)C[C@@H](C(=O)Nc1ccn(C[C@@H]2COC(C)(C)O2)n1)N1CC(Oc2cccc(Br)c2F)=CC1=O` [Example 128, (S)-2-[4-(3-Bromo-2-fluoro-phenoxy)-2-oxo-2,5-dihydro-pyrrol-1-yl]-4-methyl-pentanoic acid [1-((R)-2,2-dimethyl-[1,3]dioxolan-4-yl-methyl)-1H-pyrazol-3-yl]-amide]: 0.351 µM; for `CC(C)C[C@@H](C(=O)Nc1ccn(C[C@@H](O)CO)n1)N1CC(Oc2cccc(Br)c2F)=CC1=O` [Example 129, (S)-2-[4-(3-Bromo-2-fluoro-phenoxy)-2-oxo-2,5-dihydro-pyrrol-1-yl]-4-methyl-pentanoic acid [1-((R)-2,3-dihydroxy-propyl)-1H-pyrazol-3-yl]-amide]: 0.163 µM.
The same measure for `Cc1cccc(OC2=CC(=O)N([C@@H](CC(C)C)C(=O)Nc3ccn(C[C@@H]4COC(C)(C)O4)n3)C2)c1F` [Example 130, (S)-2-[4-(2-Fluoro-3-methyl-phenoxy)-2-oxo-2,5-dihydro-pyrrol-1-yl]-4-methyl-pentanoic acid [1-((R)-2,2-dimethyl-[1,3]dioxolan-4-yl-methyl)-1H-pyrazol-3-yl]-amide]: 0.26 µM; for `Cc1cccc(OC2=CC(=O)N([C@@H](CC(C)C)C(=O)Nc3ccn(C[C@@H](O)CO)n3)C2)c1F` [Example 131, (S)-2-[4-(2-Fluoro-3-methyl-phenoxy)-2-oxo-2,5-dihydro-pyrrol-1-yl]-4-methyl-pentanoic acid [1-((R)-2,3-dihydroxy-propyl)-1H-pyrazol-3-yl]-amide]: 0.117 µM.
